Each block holds one molecule with its values, some of them ahead of it.
Columns and labels:
[1] = Pharmacokinetics in female Lewis rats, noncompartmental analysis; details: rat, in vivo
Description: Blood samples (250 μL/bleed) were obtained at specific timepoints after administration. For compound H, blood samples were drawn at 0, 8 minutes, 15 minutes, 30 minutes, and after 1 hour, 2, 4, 6, 8, 24, 32, 48, 72 and 168 hours following i.v. administration, and 1, 2, 4, 6, 8, 24, 32, 48, and 72 hours following s.c. administration. Serum samples were analyzed for compound H levels using an electrochemiluminescence assay. PK parameters were calculated from the […] data by noncompartmental analysis. PK parameters include CMAX (maximum serum concentration), tMAX (time to achieve maximum serum concentration), CL (systemic clearance), Vss (volume of distribution at steady state), t1/2 (terminal phase half-life), and bioavailability. Area under the curve (AUC) was calculated using the trapezoidal rule. Percent bioavailability was calculated from the following equation: (AUCextravascular/AUCIV)×(DoseIV/Doseextravascular)×100. For compound R^1, blood samples were drawn and analyzed as previously described (see Leone, D. R., et al. (2003) J. Pharmacol. Exp. Ther. 305:1150–1162).
Dilutions of test samples in 50 mM HEPES pH 7.5, 100 mM NaCl, 0.1% Triton X-100, 1 mM MnCl2, 1% rat plasma, 50 ng/mL α4β1 and 0.1 μg/mL ruthenium labeled mAb B5G10 were incubated at room temperature for 20 min. 0.5 nM A-biotin was added and samples were incubated for 60 minutes at room temperature. 50 μL of a 0.5 mg/mL solution of Dynabeads M-280 Streptavidin beads (Cat No. 402–175-02, Igen, Inc., Gaithersburg, Md.) that have been prepared in assay buffer containing 8% rat plasma was added and the samples were incubated for 30 minutes at room temperature with constant mixing. 150 μL of Origen assay buffer was added and samples were analyzed in a model 1100–1000 Origen analyzer (Igen, Inc) following the manufacturer's instructions. Concentrations of compound H were interpolated from a standard curve generated with compound H that had been diluted with plasma.
The pharmacokinetic properties of compounds H and R were evaluated by noncompartmental analysis following i.v. and s.c. administration in female Lewis rats (FIG. 2). […] Compound R was rapidly cleared from circulation.

α4β1 [2] = molecular target: T1, α4β1 (Homo sapiens, UniProt P05556+P13612); assay: Equilibrium binding on Jurkat cells, competition with 35S-B as reporter
Description: The α4β1-expressing Jurkat human T-cell line (a gift from S. Burakoff, Dana Farber Cancer Institute, Boston, Mass.), and the α4β7-expressing human B-cell line, JY (American Type Tissue Collection, Rockville, Md.) were maintained in culture at 37° C. in RPMI-1640 medium supplemented with 10% fetal bovine serum (FBS). K562 cell lines transfected with either the human α1-integrin chain (Phil Gotwells, Biogen, Inc) or with the human α2 integrin chain (a gift from M. Hemler, Dana Farber Cancer Institute, Boston, Mass.) were maintained in RPMI-1640 medium supplemented with 10% FBS and 1 mg/mL G418. All cells were periodically monitored for high integrin surface expression by FACS analysis. The binding of the various inhibitors to α4β1 were assessed on Jurkat cells by competition using radioactive ^35S-B as a reporter for a 1 occupancy. Jurkat cells were pelleted by centrifugation, washed two times with TBS (50 mM Tris HCl, 150 mM NaCl, 0.1% bovine serum albumin, 2 mM glucose, 10 mM HEPES pH 7.4), suspended at approximately 2×10^6 cells/mL in TBS, and counted using a Neubauer hemocytometer. The cells were further diluted 2×10^6 cells/mL with TBS containing 1 mM CaCl2 and 1 mM MgCl2 and treated with serial dilutions of test compound for 1 hour, and then 5 nM ^35S-B, an amount sufficient to bind all unoccupied receptors, was added for 10 minutes before measuring the bound counts. The cells were then pelleted by centrifugation, resuspended in 100 μL of TBS plus Mn^2+, and transferred to a scintillation vial containing 2.9 mL of ScintiVerse II (Fisher Scientific). Cell-associated radioactivity was quantified by scintillation counting. All studies were performed in siliconized 1.5 mL eppendorf tubes with a standard 1 mL sample volume. Each condition was tested in at least two independent studies. Non-specific binding of ^35S-B to cells was assessed at each cell density and ^35S-B concentration in TBS but in the absence of added metal ion. Specific counts bound were calculated by subtracting non specific counts from total counts bound. Counts bound under these conditions measures integrin that is not occupied by the test compound and is therefore free to bind the ^35S-B. The competition format was also used for kinetic binding studies. Binding and dissociation constants were calculated from α4β1 that remained free to bind the ^35S-B after treatment with test compound.
The affinities of the PEGylated inhibitors for α4β1 were calculated from association and disassociation rate constants using a kinetic analysis. For these studies, Jurkat cells expressing α4β1 (75,000 copies/cell) were treated with the inhibitors and then ^35S-B was added as a probe to detect free α4β1. The levels of bound inhibitor were calculated from a measure of total ^35S-B bound in the absence of added inhibitor and counts bound following inhibitor treatment. […] IC50 values were calculated from equilibrium binding studies on Jurkat cells through competition using ^35S-B as a reporter in buffer containing 1 mM Ca^2+ and 1 mM Mg^2+.
Second, the effect of protein binding on the affinity of the PEGylated inhibitors for α4β1 on Jurkat cells was evaluated from equilibrium binding measurements.

lymphocyte count = assay: Lymphocyte counts following inhibitor treatment (lymphocytosis); format: in vivo, rat; details: 30 mg/kg s.c., single dose
Description: Female Lewis rats were injected with a single dose of either compound H (1 mg/kg, s.c in PBS), or compound R (30 mg/kg, s.c., in TRIS/lactose) or with their respective vehicles at time 0. At each timepoint, 0.3 mL blood from triplicate animals was drawn from the jugular vein without anesthesia and collected into Capiject purple-top microtainer tubes containing EDTA (Terumo Medical Corporation #T-MQK). […] samples were analyzed for lymphocyte count using an Abbott CellDyn 3500 cell analyzer. Blood samples from the compound H-treated animals were drawn at 4 hours, 8 hours, 12 hours, and on days 1, 2, 3, 4, 5, 6, 7, 8, and 9 and for the compound R-treated animals after 2, 6, 24, and 48 h.
Administration of compounds R and H to rats produced an α4β1-integrin dependent lymphocytosis that was sustained as long as sufficient concentrations of the inhibitors were maintained in circulation. From previous studies >90% of α4β1 receptors are estimated to be occupied to maintain lymphocytosis and therefore a target concentration of greater than or equal to 10 ng/mL compound needs to be maintained (see Leone, D. R., et al. (2003) J. Pharmacol. Exp. Ther. 305:1150–1162). […] A 2–3 fold increase in lymphocyte levels was observed. […] Elevated lymphocyte levels were maintained for 6 days. By day 9 lymphocyte levels had returned to normal. […]

EAE = assay: Rat EAE model induced with myelin basic protein peptide; format: in vivo; details: daily 30 mg/kg s.c.
α2β1 = molecular target: T2, α2β1 (Homo sapiens, UniProt P05556+P17301); assay: α2β1/collagen I cell adhesion assay (K562 transfected with human α2 integrin chain); format: cell-based; details: adhesion format, 1 mM MnCl2
T2 construct: expressed in transfected cells; host or cells: K562 cells transfected with human α2 integrin chain (gift from M. Hemler)
Description: (§1) The ability of test compounds to block α2β1/collagen I and α1β1/collagen IV interactions were evaluated in cell adhesion assays. Collagen I and collagen IV were immobilized onto a 96-well Corning Easy Wash plate (Corning Cat. No. 25801). Human integrin-expressing cell lines (2×10^5/well) were labeled with a fluorescent compound, 2 μM BCECF-AM (Molecular Probes, Eugene, Oreg., Cat# B1150), and added with or without test compounds. After 30 minutes, the plates were washed, and bound cells quantified in a Cytofluor fluorescence plate reader. The assay buffer was TRIS-buffered saline (TBS: 24 mM TRIS, 137 mM NaCl, 2.7 mM KCl, 2 mM glucose, 0.1% BSA, pH 7.4), containing 1 mM MnCl2. The specificity of binding was controlled for using integrin specific neutralizing monoclonal antibodies. The antibodies were run at 10 μg/mL on each day of the assay and were as follows: anti-α4β1, mAb HP1/2 (Biogen); anti-α2β1, mAb 26G8 (Biogen); and α1β1, mAb AJH10 (Biogen).
(§2) The results presented in Table 3 summarize the integrin selectivity for PEGylated inhibitors. The selectivity of the PEGylated inhibitors for the four integrins indicated were tested in adhesion formats for α1β1 and α2β1, and by direct binding for α4β7. Serial dilutions of each compound were tested and IC50 values calculated from the concentration dependence of the inhibition curves. […]

α1β1 = α1β1 (Homo sapiens, UniProt P05556+P56199); assay: α1β1/collagen IV cell adhesion assay (K562 transfected with human α1-integrin chain); format: cell-based; details: adhesion format, 1 mM MnCl2
Description: as §1, §2

α4β1 [3] = molecular target: T1, α4β1; assay: VCAM-Ig direct binding assay (DBA), Jurkat cells
Description: A direct binding assay may also be employed to quantitate the inhibitory activity of the compounds. In this assay, a VCAM-IgG fusion protein containing the first two immunoglobulin domains of VCAM (D1D2) attached above the hinge region of an IgG1 molecule (“VCAM 2D-IgG”), is conjugated to a marker enzyme, such as alkaline phosphatase (“AP”). […] The conjugation of that fusion to a marker enzyme is achieved by cross-linking methods well-known in the art.
The VCAM-IgG enzyme conjugate is then placed in the wells of a multi-well filtration plate, such as that contained in the Millipore Multiscreen Assay System (Millipore Corp., Bedford, Mass.). Varying concentrations of the test inhibitory compound are then added to the wells followed by addition of VLA-4-expressing cells. The cells, compound and VCAM-IgG enzyme conjugate are mixed together and allowed to incubate at room temperature. Following incubation, the wells are vacuum drained, leaving behind the cells and any bound VCAM. Quantitation of bound VCAM is determined by adding an appropriate calorimetric substrate for the enzyme conjugated to VCAM-IgG and determining the amount of reaction product. Decreased reaction product indicates increased binding inhibitory activity.
Samples were also evaluated for function using the VCAM-Ig direct binding assay. Details for the construction of the VCAM-Ig animal cell expression vector, the generation of a Chinese hamster ovary (CHO) cell line expressing VCAM-Ig, conjugation of the VCAM-Ig to alkaline phosphatase, and the development of a direct binding assay for characterizing α4β1 and α4β7 binding to VCAM-Ig were as previously described (see Lobb, R. R., et al. (1995) Cell Adhes. Commun. 3:385–397).
For these studies, a series of compounds based on compound E containing 0.35, 2, 5, 20, 30, and 50 kDa-mPEG was synthesized and tested for binding to α4β1 on Jurkat cells with VCAM-Ig as a reporter (see methods).

[4] = IC50, buffer with 1 mM Ca2+ and 1 mM Mg2+, no plasma

T1 sequence (P13612 34-1032): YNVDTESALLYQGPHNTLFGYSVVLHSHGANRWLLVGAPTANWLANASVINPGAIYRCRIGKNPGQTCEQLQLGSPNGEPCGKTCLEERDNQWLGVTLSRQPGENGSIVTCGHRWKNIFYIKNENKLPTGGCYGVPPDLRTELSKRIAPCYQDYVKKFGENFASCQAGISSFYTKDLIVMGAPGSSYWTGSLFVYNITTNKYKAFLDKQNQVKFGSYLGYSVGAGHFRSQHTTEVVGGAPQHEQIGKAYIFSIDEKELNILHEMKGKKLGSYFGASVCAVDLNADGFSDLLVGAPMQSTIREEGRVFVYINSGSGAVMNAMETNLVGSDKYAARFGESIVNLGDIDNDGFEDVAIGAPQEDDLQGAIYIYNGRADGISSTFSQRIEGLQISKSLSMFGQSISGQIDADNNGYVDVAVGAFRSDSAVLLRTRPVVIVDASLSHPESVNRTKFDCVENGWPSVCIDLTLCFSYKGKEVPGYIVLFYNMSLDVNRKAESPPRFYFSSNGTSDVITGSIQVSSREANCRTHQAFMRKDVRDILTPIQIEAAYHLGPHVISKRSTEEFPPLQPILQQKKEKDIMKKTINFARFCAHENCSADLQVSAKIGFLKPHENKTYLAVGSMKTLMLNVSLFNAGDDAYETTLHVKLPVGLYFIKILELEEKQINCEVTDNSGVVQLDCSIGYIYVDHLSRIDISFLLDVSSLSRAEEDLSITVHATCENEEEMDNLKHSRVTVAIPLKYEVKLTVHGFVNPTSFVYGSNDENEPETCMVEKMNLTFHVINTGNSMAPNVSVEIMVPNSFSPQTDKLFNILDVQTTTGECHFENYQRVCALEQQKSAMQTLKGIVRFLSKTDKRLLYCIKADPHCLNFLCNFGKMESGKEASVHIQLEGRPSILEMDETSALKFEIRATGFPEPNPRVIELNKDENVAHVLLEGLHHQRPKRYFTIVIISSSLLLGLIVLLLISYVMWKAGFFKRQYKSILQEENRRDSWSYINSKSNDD
T1 sequence (P05556 21-798): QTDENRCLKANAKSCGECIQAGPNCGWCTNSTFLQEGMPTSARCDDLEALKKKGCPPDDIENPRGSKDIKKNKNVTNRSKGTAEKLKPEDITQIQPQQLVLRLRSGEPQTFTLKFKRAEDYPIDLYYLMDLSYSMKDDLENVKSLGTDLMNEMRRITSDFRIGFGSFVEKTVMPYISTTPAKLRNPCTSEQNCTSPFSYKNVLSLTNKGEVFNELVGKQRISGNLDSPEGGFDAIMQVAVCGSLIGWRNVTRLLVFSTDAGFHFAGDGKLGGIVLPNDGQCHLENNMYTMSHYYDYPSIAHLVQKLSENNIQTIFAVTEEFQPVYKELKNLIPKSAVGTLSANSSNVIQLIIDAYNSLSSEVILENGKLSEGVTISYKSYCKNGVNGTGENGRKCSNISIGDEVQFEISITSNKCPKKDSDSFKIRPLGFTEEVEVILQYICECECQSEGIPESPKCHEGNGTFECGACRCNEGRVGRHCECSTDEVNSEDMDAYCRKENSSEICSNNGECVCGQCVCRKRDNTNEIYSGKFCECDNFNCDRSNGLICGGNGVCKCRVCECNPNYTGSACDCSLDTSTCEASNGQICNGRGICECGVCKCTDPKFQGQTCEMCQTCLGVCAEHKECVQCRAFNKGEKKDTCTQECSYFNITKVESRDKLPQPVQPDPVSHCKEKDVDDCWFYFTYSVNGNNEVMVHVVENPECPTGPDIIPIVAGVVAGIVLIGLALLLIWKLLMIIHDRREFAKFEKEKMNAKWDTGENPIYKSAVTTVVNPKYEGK
T2 sequence (P17301 30-1181): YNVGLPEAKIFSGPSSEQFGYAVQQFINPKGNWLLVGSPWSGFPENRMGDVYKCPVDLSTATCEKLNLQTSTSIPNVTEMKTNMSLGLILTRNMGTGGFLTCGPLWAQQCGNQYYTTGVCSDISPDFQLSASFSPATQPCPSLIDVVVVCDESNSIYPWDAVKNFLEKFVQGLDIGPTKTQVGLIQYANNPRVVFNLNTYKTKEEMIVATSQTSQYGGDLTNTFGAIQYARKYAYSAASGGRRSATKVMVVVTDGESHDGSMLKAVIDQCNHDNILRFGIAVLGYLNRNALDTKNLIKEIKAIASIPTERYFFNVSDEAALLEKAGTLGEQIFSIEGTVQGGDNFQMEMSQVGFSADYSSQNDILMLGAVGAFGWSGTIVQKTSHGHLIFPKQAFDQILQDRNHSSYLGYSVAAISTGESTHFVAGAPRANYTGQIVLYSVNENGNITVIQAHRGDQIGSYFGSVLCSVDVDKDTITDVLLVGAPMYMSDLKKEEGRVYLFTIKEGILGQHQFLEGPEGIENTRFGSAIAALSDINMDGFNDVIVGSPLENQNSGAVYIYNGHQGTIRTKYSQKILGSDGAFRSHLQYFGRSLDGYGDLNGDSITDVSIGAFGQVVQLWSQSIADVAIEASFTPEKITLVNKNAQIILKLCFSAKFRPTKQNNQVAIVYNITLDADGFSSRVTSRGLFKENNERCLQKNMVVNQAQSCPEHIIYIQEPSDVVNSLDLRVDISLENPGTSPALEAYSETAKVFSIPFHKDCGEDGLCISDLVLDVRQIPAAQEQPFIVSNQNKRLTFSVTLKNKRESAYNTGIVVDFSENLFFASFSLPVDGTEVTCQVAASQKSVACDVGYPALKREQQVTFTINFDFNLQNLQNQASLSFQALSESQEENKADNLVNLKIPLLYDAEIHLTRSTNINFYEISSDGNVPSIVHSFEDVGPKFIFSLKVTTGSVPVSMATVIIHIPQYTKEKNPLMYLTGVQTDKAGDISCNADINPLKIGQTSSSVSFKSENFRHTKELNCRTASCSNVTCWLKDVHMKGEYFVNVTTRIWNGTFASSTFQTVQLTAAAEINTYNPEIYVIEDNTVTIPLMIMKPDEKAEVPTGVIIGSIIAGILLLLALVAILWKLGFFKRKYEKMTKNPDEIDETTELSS
T2 sequence (P05556 21-798): as the sequence (P05556 21-798) above
Chain of α1β1 (P56199 29-1179): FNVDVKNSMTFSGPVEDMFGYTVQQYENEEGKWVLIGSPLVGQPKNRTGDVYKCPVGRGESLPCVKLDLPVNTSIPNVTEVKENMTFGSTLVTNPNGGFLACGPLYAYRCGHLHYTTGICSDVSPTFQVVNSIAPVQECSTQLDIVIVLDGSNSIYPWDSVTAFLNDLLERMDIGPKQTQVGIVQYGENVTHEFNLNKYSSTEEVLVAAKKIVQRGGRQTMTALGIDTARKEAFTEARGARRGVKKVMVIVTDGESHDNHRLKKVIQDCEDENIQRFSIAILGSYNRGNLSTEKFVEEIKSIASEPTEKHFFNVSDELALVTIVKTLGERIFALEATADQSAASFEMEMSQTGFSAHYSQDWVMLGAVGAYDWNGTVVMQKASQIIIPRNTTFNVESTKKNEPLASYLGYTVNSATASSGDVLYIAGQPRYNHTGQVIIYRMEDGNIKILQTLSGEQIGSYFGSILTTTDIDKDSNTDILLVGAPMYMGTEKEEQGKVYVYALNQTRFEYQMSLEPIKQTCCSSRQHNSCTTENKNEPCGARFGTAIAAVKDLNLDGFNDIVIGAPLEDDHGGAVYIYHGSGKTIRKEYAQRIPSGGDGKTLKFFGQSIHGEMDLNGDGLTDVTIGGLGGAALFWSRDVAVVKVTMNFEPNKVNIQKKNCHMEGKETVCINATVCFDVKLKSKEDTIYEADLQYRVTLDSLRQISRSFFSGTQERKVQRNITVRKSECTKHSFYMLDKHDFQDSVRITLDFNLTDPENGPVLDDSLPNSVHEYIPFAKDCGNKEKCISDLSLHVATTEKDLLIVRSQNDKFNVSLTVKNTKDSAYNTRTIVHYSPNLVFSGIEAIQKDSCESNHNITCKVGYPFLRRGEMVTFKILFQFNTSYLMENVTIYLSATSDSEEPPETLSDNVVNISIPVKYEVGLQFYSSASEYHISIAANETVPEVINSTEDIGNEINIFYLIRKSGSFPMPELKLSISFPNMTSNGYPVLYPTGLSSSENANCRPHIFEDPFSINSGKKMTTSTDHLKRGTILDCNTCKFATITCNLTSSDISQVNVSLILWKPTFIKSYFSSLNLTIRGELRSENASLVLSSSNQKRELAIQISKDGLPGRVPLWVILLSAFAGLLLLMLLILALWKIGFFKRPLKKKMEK
Chain of α1β1 (P05556 21-798): as the sequence (P05556 21-798) above

Compound: Cc1ccccc1NC(=O)Nc1ccc(CC(=O)N(C)[C@@H](CC(C)C)C(=O)NCC[C@H](NC(=O)[C@@H]2CCCN2S(=O)(=O)c2cc(Cl)cc(Cl)c2)C(=O)O)cc1 [Compound R, 2S-{[1-(3,5-dichloro-benzenesulfonyl)-pyrrolidine-2S-carbonyl]-amino}-4-[4-methyl-2S-(methyl-{2-[4-(3-o-tolyl-ureido)-phenyl]-acetyl}-amino)-pentanoylamino]-butyric acid]
- AUC ([1]; iv, 1 mg/kg): 2300 ng·h/mL
- Cmax ([1]; iv, 1 mg/kg): 13100 ng/mL
- Tmax ([1]; iv, 1 mg/kg): 0 h
- Vd ([1]; iv, 1 mg/kg): 0.168 L/kg
- clearance ([1]; iv, 1 mg/kg): 7.1 mL/min/kg
- half-life ([1]; iv, 1 mg/kg): 1.1 h
- AUC ([1]; sc, 10 mg/kg): 6100 ng·h/mL
- CL ([1]; sc, 10 mg/kg): 27.17 mL/min/kg
- Cmax ([1]; sc, 10 mg/kg): 780 ng/mL
- Tmax ([1]; sc, 10 mg/kg): 0.5 h
- bioavailability ([1]; sc, 10 mg/kg): 20%
- half-life ([1]; sc, 10 mg/kg): 2.7 h
- time >100 ng/mL blood levels were maintained ([1]; sc, 10 mg/kg): 12 h
- IC50 (α4β1 [2]; IC50(HP), 100% human plasma): 0.8 nM
- IC50 (α4β1 [2]; [4]): 0.15 nM
- day by which lymphocyte levels returned to normal (lymphocyte count): ≤ 2 days
- duration of lymphocytosis (lymphocyte count): one
- mean paralytic score reached (EAE): 3.0

- half-life ([1]; iv): 2.5 h
- bioavailability ([1]; sc): 21%
- IC50 (α2β1): 5000 nM
- IC50 (α4β1 [2]; IC50(HP), 100% human plasma): 1.5 nM
- IC50 (α4β1 [2]; [4]): 0.21 nM
- IC50 (α1β1): > 10000 nM
- IC50 (α4β1 [3]; DBA IC50 100% rat plasma, 100% rat plasma): 13 nM
- IC50 (α4β1 [3]; DBA IC50 Ca2+Mg2+, Ca2+Mg2+): 2 nM
- IC50 (α4β1 [3]; DBA IC50 Mn2+, Mn2+): 1.2 nM
Compound: Cc1ccccc1NC(=O)Nc1ccc(CC(=O)N(C)[C@@H](CC(C)C)C(=O)NCC[C@H](NC(=O)C2CCCN2S(=O)(=O)c2ccccc2)C(=O)O)cc1 (stereo partly drawn) [Compound B, 2S-[(1-benzenesulfonyl-pyrrolidine-2S-carbonyl)-amino]-4-[4-methyl-2S-(methyl-{2-[4-(3-o-tolyl-ureido)-phenyl]-acetyl}-amino)-pentanoylamino]-butyric acid]

— patent US7196112B2, “Cell adhesion inhibitors” (Biogen Idec MA Inc., priority 2004, dated 2007)
